In assay [1] the target is human acetylcholinesterase (Homo sapiens (Human), UniProt P22303). Briefly: biochemical. In kind it is biochemical. The conditions noted are these: acetylcholinesterase from human erythrocytes.
Protocol: 100 μL of a 0.3 mM 5,5-dithiobis(2-nitrobenzoic acid) (DTNB) solution in a pH 7.4 phosphate buffer are introduced into a 96-well plate, followed by 50 μL of compound to be tested in solution in DMSO and 50 μL of enzyme solution. After 5 min of preincubation, the reaction is initiated by injecting 50 μL of 10 mM acetylthiocholine iodide solution. […] Donepezil is used as a reference product.
Assay [2] deals with 5-HT4 receptors (Cavia porcellus (Guinea pig), UniProt O70528). Description: Affinity as regards 5-HT4 receptors: competition against [3H]-GR113808 on striatal membranes. In kind it is binding.
Assay [3] addresses 5-HT4 receptor (Homo sapiens (Human), UniProt Q13639). Briefly: Agonist nature as regards the 5-HT4 receptor: accumulation of intracellular cyclic AMP in stably transfected CHO cells. Type of assay: cell-based. The following applies: percentage of agonist effect in relation to serotonin.
In assay [4] the target is peripheral site of eeAChE (Electrophorus electricus (Electric eel) (Gymnotus electricus), UniProt O42275). Type of assay: binding.
Protocol: When propidium diiodide binds to the peripheral site of AChE, it produces an increase in fluorescence which can be used as proof of its binding to the enzyme. Fluorescence measurements are made in 200 μL of solution in 96-well plates using a Tecan Infinite M2000 microplate reader. […] 50 μL of micromolar solution of propidium diiodide are added before measuring fluorescence. […] Each test is repeated at least three times.
Assay [5] concerns male NMRI mice. Briefly: Object recognition test. In kind it is in vivo. The following applies: intraperitoneal, 30 minutes before the acquisition session.
Protocol: The tests are performed using male NMRI mice of around 3 months old at the time of the tests.
The object recognition test is based on the spontaneous preference of rodents for novelty, without bringing food deprivation or electric shock into play.
The device comprises a square PVC enclosure (33×33×20 cm, illuminated at 10 lux in the center) with black surfaces. The test is performed in 2 phases: one habituation phase, allowing the animals to become habituated to the test environment (enclosure, room, experimenter), the other a memory performance assessment phase. A camera is positioned above the device and connected to a video-tracking system (ViewPoint®). During the behavioral tests, the experimenter is not present in the experimentation room but remains in an adjacent room that houses the video-tracking system.
After a habituation phase (Day 1, individual exposure for 5 minutes to the open-field with no objects), the memory performance assessment phase begins on the 2nd day and is made up of 2 sessions, one the presentation session and the other the test session. […] The exploration time of each object, A1 and A2 respectively, as well as the time required to achieve the exploration criterion are measured. […] The time required to achieve the exploration criterion as well as the exploration time of the new object are measured and the latter is compared to the chance level (15 s). […]
[6] abbreviates: 10^-5 M solution of compound, eeAChE, propidium diiodide fluorescence.

Where two headings read alike, the source gives them in different places.

Sequence of 5-HT4 receptor (Q13639 whole entry): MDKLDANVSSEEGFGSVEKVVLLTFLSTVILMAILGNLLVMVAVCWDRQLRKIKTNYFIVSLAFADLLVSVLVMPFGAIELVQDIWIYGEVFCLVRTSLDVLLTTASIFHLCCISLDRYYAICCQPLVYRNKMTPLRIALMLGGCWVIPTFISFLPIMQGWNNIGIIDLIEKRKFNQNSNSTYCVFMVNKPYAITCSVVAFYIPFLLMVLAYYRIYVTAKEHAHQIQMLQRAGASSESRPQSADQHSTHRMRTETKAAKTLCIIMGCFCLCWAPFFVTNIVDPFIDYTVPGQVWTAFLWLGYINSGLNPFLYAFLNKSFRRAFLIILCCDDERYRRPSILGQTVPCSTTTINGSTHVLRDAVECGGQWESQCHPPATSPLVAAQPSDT
Sequence of peripheral site of eeAChE (O42275 whole entry, looked up): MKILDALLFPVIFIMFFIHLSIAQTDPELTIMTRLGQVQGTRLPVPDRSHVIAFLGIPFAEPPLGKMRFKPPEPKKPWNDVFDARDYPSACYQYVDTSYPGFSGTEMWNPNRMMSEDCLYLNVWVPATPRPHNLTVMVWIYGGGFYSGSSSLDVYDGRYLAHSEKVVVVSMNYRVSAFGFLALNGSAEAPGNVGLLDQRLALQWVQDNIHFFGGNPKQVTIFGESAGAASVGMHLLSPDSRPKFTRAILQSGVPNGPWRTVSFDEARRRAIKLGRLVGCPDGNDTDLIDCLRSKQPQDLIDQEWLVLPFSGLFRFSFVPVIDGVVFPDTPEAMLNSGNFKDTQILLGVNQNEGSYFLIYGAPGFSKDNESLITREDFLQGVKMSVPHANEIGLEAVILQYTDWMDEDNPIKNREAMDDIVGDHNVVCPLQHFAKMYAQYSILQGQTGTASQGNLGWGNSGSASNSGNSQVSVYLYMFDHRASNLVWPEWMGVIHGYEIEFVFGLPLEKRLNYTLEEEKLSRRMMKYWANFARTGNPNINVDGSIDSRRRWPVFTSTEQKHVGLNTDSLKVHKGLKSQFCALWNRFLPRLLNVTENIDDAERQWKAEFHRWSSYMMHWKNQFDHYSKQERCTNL
Sequence of human acetylcholinesterase (P22303 32-574 with tags or gaps limits assumed): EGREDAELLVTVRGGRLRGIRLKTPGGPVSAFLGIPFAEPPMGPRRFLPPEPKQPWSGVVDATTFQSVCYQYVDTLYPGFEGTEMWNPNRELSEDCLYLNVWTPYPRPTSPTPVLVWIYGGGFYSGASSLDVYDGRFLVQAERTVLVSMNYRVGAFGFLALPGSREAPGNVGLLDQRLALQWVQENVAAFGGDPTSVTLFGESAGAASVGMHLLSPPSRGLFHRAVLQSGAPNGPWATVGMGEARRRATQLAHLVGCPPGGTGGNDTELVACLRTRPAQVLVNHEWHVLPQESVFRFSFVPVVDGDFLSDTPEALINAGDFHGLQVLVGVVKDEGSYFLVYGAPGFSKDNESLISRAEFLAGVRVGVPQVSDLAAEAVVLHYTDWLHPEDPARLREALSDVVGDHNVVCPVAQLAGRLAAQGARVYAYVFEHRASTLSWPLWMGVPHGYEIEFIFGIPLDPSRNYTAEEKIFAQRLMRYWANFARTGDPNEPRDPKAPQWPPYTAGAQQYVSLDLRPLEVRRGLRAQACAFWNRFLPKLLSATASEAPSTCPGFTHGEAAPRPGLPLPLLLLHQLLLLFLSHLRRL
Sequence of 5-HT4 receptors (O70528 whole entry): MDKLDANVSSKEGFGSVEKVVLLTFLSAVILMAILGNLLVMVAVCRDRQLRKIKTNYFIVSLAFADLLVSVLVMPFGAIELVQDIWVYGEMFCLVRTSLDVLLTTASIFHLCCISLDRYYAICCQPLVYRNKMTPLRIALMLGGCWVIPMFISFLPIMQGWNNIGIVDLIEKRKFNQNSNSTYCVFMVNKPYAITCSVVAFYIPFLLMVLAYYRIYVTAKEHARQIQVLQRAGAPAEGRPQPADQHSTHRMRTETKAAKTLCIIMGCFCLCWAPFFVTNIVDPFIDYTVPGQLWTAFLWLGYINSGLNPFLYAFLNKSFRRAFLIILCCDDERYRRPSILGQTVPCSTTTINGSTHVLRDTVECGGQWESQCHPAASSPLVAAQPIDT

Turning to `CCCCN1CCC(CCC(=O)c2cc(Br)c(N)cc2OC)CC1` [Compound 2, 1-(4-amino-5-bromo-2-methoxyphenyl)-3-[1-butyl-4-piperidyl]propan-1-one], the half-maximal inhibitory concentration (IC50) in assay [1] came to 445 nM. Moreover, the Ki in assay [2] stood at 8.9 nM.

In assay [3], `COc1cc(N)c(F)cc1C(=O)CCC1CCN(CC2CCCCC2)CC1` [Compound 5, 1-(4-amino-5-fluoro-2-methoxyphenyl)-3-[1-(cyclohexylmethyl)-4-piperidyl]propan-1-one] displayed an Agonistic effect % of 16%. Also, in assay [4] (setting [6]), the “% Propidium Displacement” value stood at 22%.

As for `COc1cc(N)c(Cl)cc1C(=O)CCC1CCN(CC2CCCC2)CC1` [Compound 8, 1-(4-amino-5-chloro-2-methoxyphenyl)-3-[1-(cyclopentylmethyl)-4-piperidyl]propan-1-one], the Agonistic effect % in assay [3] is given as 12%. Also, in assay [4] (setting [6]), the “% Propidium Displacement” value was 20%.

For `COc1cc(N)c(Cl)cc1C(=O)CCC1CCN(CC2CCCCC2)CC1` [Compound 9, 1-(4-amino-5-chloro-2-methoxyphenyl)-3-[1-(cyclohexylmethyl)-4-piperidyl]propan-1-one], in assay [5], the “dose of maximum effect on object recognition performance” value came out at 0.3 mg/kg. Also, the “object recognition performance compared to the control batch” value in assay [5] (24 hours intersession) is recorded as “improvement in object recognition performance compared to the control batch”. Also, the Agonistic effect % in assay [3] was 22%. Moreover, the “% Propidium Displacement” value in assay [4] (setting [6]) came out at 22%.

For `COc1cc(N)c(Cl)cc1C(=O)CCC1CCN(CC2CCCCCC2)CC1` [Compound 12, 1-(4-amino-5-chloro-2-methoxyphenyl)-3-[1-(cycloheptylmethyl)-4-piperidyl]propan-1-one], in assay [3], the Agonistic effect % is recorded as 21%. Moreover, in assay [4] (setting [6]), the “% Propidium Displacement” value turned out to be 20%.

As for `COc1cc(N)c(Br)cc1C(=O)CCC1CCN(CC2CCCCC2)CC1` [Compound 14, 1-(4-amino-5-bromo-2-methoxyphenyl)-3-[1-(cyclohexylmethyl)-4-piperidyl]propan-1-one], the “% Propidium Displacement” value in assay [4] came out at 20%.

For the molecule `COc1cc(N)c(Cl)cc1C(=O)CCC1CCN(CCC2CCCCC2)CC1` [Compound 16, 1-(4-amino-5-chloro-2-methoxyphenyl)-3-[1-(cyclohexylethyl)-4-piperidyl]propan-1-one], the “% Propidium Displacement” value in assay [4] is on record as 21%.

In assay [1], `COc1cc(N)c(Cl)cc1C(=O)NCC1CCN(CC2CCCCC2)CC1` [Compound 17, 4-amino-5-chloro-[[1-(cyclohexylmethyl)-4-piperidyl]methyl]-2-methoxybenzamide] showed a 50% inhibitory concentration (IC50) of 3730 nM. Further, the Ki in assay [2] (0.1 nM [3H]-GR113808, guinea pig striatal membranes, read-out: Ki) amounted to 2.3 nM.

In the case of `Nc1cc(OCCF)c(C(=O)CCC2CCN(CC3CCCCC3)CC2)cc1Cl` [Compound 23, 1-[4-amino-5-chloro-2-(2-fluoroéthoxy)phenyl]-3-[1-(cyclohexylmethyl)-4-piperidyl]propan-1-one], the “% Propidium Displacement” value in assay [4] (setting [6]) is 22%.

As for `COCCCN1CCC(NC(=O)c2cc(Cl)c(N)c3c2OCC3)CC1` [prucalopride, reference compound], the Agonistic effect % in assay [3] worked out at 100%.
